Test results published in ChEMBL document CHEMBL4616625, “The Medicinal Chemistry in the Era of Machines and Automation: Recent Advances in Continuous Flow Technology” (J Med Chem, 2020).

Legend:
Albumin = Albumin (Homo sapiens, UniProt P02768); assay: Binding affinity to albumin (unknown origin); assay type: ADME
[1] = biological target: T1, Alpha-1B adrenergic receptor (Homo sapiens, UniProt P35368); assay: Inhibition of alpha1B adrenergic receptor (unknown origin)
T1 sequence (P35368 whole entry): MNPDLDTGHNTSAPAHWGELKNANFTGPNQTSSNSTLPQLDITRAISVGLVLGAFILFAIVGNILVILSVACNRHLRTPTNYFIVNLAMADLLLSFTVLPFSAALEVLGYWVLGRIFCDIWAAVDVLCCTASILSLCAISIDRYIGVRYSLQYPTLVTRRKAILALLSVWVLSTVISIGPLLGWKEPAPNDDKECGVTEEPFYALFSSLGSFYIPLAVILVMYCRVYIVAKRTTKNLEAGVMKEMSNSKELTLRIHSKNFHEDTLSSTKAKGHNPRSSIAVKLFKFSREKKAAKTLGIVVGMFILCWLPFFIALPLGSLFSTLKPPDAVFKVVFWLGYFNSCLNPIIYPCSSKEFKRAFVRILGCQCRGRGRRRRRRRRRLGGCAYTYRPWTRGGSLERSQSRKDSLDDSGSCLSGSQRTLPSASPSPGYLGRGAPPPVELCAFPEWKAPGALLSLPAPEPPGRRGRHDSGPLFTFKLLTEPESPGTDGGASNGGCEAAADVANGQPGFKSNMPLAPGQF

Chain of Albumin (P02768 whole entry): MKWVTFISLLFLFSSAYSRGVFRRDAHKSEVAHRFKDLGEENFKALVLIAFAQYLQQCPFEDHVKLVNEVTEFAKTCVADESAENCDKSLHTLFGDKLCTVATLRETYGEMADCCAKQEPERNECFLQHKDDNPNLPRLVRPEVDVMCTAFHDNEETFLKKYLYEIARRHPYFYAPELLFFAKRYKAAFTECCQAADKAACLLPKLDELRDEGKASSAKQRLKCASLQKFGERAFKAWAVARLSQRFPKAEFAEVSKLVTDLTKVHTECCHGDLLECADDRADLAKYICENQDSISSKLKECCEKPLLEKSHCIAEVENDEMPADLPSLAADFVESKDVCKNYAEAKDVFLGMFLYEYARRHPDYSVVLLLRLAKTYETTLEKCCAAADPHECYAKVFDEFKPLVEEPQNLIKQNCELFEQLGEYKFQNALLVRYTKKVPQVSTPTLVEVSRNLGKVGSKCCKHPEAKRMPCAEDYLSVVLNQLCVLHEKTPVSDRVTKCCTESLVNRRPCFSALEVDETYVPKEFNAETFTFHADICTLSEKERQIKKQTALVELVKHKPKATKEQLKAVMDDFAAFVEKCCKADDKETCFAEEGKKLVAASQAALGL

Compound	Kd (Albumin) [nM]	Ki [1] [nM]
CCCN(CCC)C(=O)Cc1c(-c2ccc(Cl)cc2)nc2ccc(Cl)cn12 [ALPIDEM]	2000	–
Cc1ccc(-c2nc3ccc(C)cn3c2CC(=O)N(C)C)cc1 [ZOLPIDEM]	63000	–
COc1ccc(-c2nc3ccccn3c2NCCN2CCOCC2)c(OC)c1	–	2000
